Laboratory results as given in patent publication US5010083A, “2,6-methano-1,3-benzodiazocine compounds which have useful pharmaceutical utility” (priority 1989, dated 1991).
Counter-ions that a name gives are not always drawn.

Molecular target: T1, brain acetylcholinesterase (AChE) (Rattus norvegicus, UniProt P37136)
T1 construct: corpora striata dissected free, weighed and homogenized in 19 volumes; from tissue; host or cells: corpora striata of male Wistar rats, whole homogenate
T1 sequence (P37136 32-614): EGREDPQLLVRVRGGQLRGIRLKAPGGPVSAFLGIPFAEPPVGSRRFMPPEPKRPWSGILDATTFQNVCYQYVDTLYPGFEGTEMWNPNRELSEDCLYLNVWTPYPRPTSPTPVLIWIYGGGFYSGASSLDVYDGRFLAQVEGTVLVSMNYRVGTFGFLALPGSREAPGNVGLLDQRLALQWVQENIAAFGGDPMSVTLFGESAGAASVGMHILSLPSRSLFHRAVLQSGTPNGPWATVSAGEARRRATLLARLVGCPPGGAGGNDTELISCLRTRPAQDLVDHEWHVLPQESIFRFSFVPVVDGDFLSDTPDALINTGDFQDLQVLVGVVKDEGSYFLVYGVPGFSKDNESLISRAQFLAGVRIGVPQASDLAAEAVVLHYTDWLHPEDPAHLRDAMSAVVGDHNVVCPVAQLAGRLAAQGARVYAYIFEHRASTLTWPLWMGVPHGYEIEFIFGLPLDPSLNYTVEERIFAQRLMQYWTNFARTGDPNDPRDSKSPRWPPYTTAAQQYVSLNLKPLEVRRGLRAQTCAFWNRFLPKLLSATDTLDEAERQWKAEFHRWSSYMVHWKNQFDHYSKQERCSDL
Experiment: In Vitro Inhibition of Acetylcholinesterase Activity in Rat Striatum
Type: biochemical, rat (male Wistar)
From the text: Cholinesterases are found throughout the body, both in the brain and in serum. However, only brain acetylcholinesterase (AChE) distribution is correlated with central cholinergic innervation. […] We have determined in vitro inhibition of acetylcholinesterase activity in rat striatum according to the method described below.
The method described below was used in this invention for assaying anticholinesterase activity.
1. 0.05M Phosphate buffer, pH 7.2
(c) add (a) to (b) until pH reaches 7.2
(a) 9.9 mg 5,5-dithiobisnitrobenzoic acid (DTNB) (0.25 mM)
(b) 99 mg s-acetylthiocholine chloride (5 mM)
(c) q.s. to 100 ml with 0.05M phosphate buffer, pH 7.2 (reagent 1)
Male Wistar rats are decapitated, brains rapidly removed, corpora striata dissected free, weighed and homogenized in 19 volumes (approximately 7 mg protein/ml) of 0.05M phosphate buffer, pH 7.2 using a Potter-Elvehjem homogenizer. […]
Using the indicated instrument settings the ABA-100 automatically reads the color reaction and prints out the results in enzyme units after 15 minutes.
2. The enzyme activity can also be measured with a Gilford 250 spectrophotometer. […]
The uninhibited activity of the enzyme (tissue homogenate) is first determined. […] The reaction rate is determined by the slope of the recorded absorbance change. The actual rate (moles/liter/min) can be calculated as described in the following formula

Row | Structure (SMILES) | IC50 [µM]
1 | CN1CCC2CC1N(C)c1ccc(OC(=O)NC3CCCCC3)cc12 (centres unmarked) [1,2,3,4,5,6-Hexahydro-1,3-dimethyl-2,6-methano-1,3-benzodiazocin-8-ol, cyclohexyl carbamate] | 10.7
2 | CNC(=O)Oc1ccc2c(c1)C1CCN(C)C(C1)N2C (centres unmarked) [1,2,3,4,5,6-Hexahydro-1,3-dimethyl-2,6-methano-1,3-benzodiazocin-8-ol, methyl carbamate fumarate] | 0.058
